# In article PMC12000319, “Proton conductance by human uncoupling protein 1 is inhibited by purine and pyrimidine nucleotides” (The EMBO Journal, 2025):
# “And” between values parts separate entries of the source, which are not always exact repeats. Equal values may be shown once. Read-outs that look alike come from different tables or passages of the source.
# Key:
# UCP1 [1] = molecular target: T1, UCP1 (Homo sapiens, UniProt P25874); experiment: Differential scanning fluorimetry (nanoDSF) thermal stability shift assay; format: binding; details: for ΔTm at 1000 µM: read-out: thermal shift (ΔTm)
# T1 construct: His8 (N, cleaved yes); Factor Xa protease cleavage site (N, cleaved yes); made in house; host or cells: Saccharomyces cerevisiae strain W303.1B
# T1 sequence (P25874 1-307): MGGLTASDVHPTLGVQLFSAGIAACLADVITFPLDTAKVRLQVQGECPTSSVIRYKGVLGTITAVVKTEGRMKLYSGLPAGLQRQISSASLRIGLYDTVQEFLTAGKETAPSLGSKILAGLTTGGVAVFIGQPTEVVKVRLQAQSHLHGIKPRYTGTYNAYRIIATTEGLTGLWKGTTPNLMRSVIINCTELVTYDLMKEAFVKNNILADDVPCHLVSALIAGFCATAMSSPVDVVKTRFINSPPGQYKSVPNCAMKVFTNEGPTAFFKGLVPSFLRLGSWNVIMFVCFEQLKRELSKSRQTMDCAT
# UCP1 [2] = molecular target: T1, UCP1; experiment: Isothermal titration calorimetry of nucleotide binding; design: isotherm data point (enthalpy change per injection): unit not given here; details: for isotherm data point (enthalpy change per injection): representative isotherm;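 for all read-outs here: purified human UCP1 in cacodylate buffer with lauryl maltose neopentyl glycol and cardiolipin, titrated with nucleotides, isotherms fitted by one-site model yielding ΔH, Kd and stoichiometry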
# UCP1 [3] = test system: UCP1; design: method as in Heaton and Nicholls, 1977; Divakaruni et al, 2012; details: whole mitochondria; ref Heaton and Nicholls, 1977; Divakaruni et al, 2012; cited from earlier work
# [4] = ITC, pH 6.0, 20 °C, mean ± standard deviation of three biological repeats (Fig. 2A-E)
# [5] = ITC, single biological repeats (source data Fig. 2F)
structure (smiles),measurement,setting,value
"Nc1nc2c(ncn2[C@@H]2O[C@H](COP(=O)(O)OP(=O)(O)OP(=O)(O)O)[C@@H](O)[C@H]2O)c(=O)[nH]1 [GTP, guanosine triphosphate]",temperature shift (ΔTm),"UCP1 [1]; 1 mM nucleotide, pH 6.0, detergent-solubilised UCP1, mean of three biological repeats",16.2 °C
same,ΔTm at 1000 µM,"UCP1 [1]; pH 6, 1 mM nucleotide, pH 6.0, single repeats (source data Fig. 1D)",16 °C
same,ΔTm at 1000 µM,"UCP1 [1]; pH 6.5, 1 mM nucleotide, pH 6.5, single repeats (source data Fig. 1D)",12 °C
same,ΔTm at 1000 µM,"UCP1 [1]; pH 7, 1 mM nucleotide, pH 7.0, single repeats (source data Fig. 1D)",7.8 °C
same,ΔTm at 1000 µM,"UCP1 [1]; pH 7.5, 1 mM nucleotide, pH 7.5, single repeats (source data Fig. 1D)",3.6 °C
same,binding affinity to UCP1 (in words),UCP1 [2]; ITC,intermediary affinities
same,Kd,UCP1 [2]; [4],3.77 ± 0.12 µM
same,Kd,UCP1 [2]; [5],3.68 µM and 3.9 µM and 3.73 µM
same,isotherm data point (enthalpy change per injection),"UCP1 [2]; Molar ratio (Nucleotide/UCP) 0.120417, pH 6.0, 20 °C",-20.3045
same,isotherm data point (enthalpy change per injection),"UCP1 [2]; Molar ratio (Nucleotide/UCP) 0.181226, pH 6.0, 20 °C",-19.4276
same,isotherm data point (enthalpy change per injection),"UCP1 [2]; Molar ratio (Nucleotide/UCP) 0.242439, pH 6.0, 20 °C",-18.5029
same,isotherm data point (enthalpy change per injection),"UCP1 [2]; Molar ratio (Nucleotide/UCP) 0.304059, pH 6.0, 20 °C",-18.707
same,isotherm data point (enthalpy change per injection),"UCP1 [2]; Molar ratio (Nucleotide/UCP) 0.366087, pH 6.0, 20 °C",-18.3445
same,isotherm data point (enthalpy change per injection),"UCP1 [2]; Molar ratio (Nucleotide/UCP) 0.428528, pH 6.0, 20 °C",-17.3071
same,isotherm data point (enthalpy change per injection),"UCP1 [2]; Molar ratio (Nucleotide/UCP) 0.491383, pH 6.0, 20 °C",-16.412
same,isotherm data point (enthalpy change per injection),"UCP1 [2]; Molar ratio (Nucleotide/UCP) 0.554656, pH 6.0, 20 °C",-17.0687
same,isotherm data point (enthalpy change per injection),"UCP1 [2]; Molar ratio (Nucleotide/UCP) 0.618348, pH 6.0, 20 °C",-15.1625
same,isotherm data point (enthalpy change per injection),"UCP1 [2]; Molar ratio (Nucleotide/UCP) 0.682464, pH 6.0, 20 °C",-14.4377
same,isotherm data point (enthalpy change per injection),"UCP1 [2]; Molar ratio (Nucleotide/UCP) 0.747006, pH 6.0, 20 °C",-12.3158
same,isotherm data point (enthalpy change per injection),"UCP1 [2]; Molar ratio (Nucleotide/UCP) 0.811976, pH 6.0, 20 °C",-11.9274
same,isotherm data point (enthalpy change per injection),"UCP1 [2]; Molar ratio (Nucleotide/UCP) 0.877378, pH 6.0, 20 °C",-11.0392
same,isotherm data point (enthalpy change per injection),"UCP1 [2]; Molar ratio (Nucleotide/UCP) 0.943214, pH 6.0, 20 °C",-8.777
same,isotherm data point (enthalpy change per injection),"UCP1 [2]; Molar ratio (Nucleotide/UCP) 1.00949, pH 6.0, 20 °C",-7.389
same,isotherm data point (enthalpy change per injection),"UCP1 [2]; Molar ratio (Nucleotide/UCP) 1.0762, pH 6.0, 20 °C",-6.878
same,isotherm data point (enthalpy change per injection),"UCP1 [2]; Molar ratio (Nucleotide/UCP) 1.14336, pH 6.0, 20 °C",-5.2039
same,isotherm data point (enthalpy change per injection),"UCP1 [2]; Molar ratio (Nucleotide/UCP) 1.21096, pH 6.0, 20 °C",-4.2804
same,isotherm data point (enthalpy change per injection),"UCP1 [2]; Molar ratio (Nucleotide/UCP) 1.27901, pH 6.0, 20 °C",-2.298
same,isotherm data point (enthalpy change per injection),"UCP1 [2]; Molar ratio (Nucleotide/UCP) 1.34751, pH 6.0, 20 °C",-2.606
same,isotherm data point (enthalpy change per injection),"UCP1 [2]; Molar ratio (Nucleotide/UCP) 1.41647, pH 6.0, 20 °C",-2.5907
same,isotherm data point (enthalpy change per injection),"UCP1 [2]; Molar ratio (Nucleotide/UCP) 1.48589, pH 6.0, 20 °C",-0.9936
same,isotherm data point (enthalpy change per injection),"UCP1 [2]; Molar ratio (Nucleotide/UCP) 1.55577, pH 6.0, 20 °C",-1.473
same,isotherm data point (enthalpy change per injection),"UCP1 [2]; Molar ratio (Nucleotide/UCP) 1.62611, pH 6.0, 20 °C",-0.9907
same,isotherm data point (enthalpy change per injection),"UCP1 [2]; Molar ratio (Nucleotide/UCP) 1.69692, pH 6.0, 20 °C",-0.3592
same,isotherm data point (enthalpy change per injection),"UCP1 [2]; Molar ratio (Nucleotide/UCP) 1.76819, pH 6.0, 20 °C",-0.2978
same,isotherm data point (enthalpy change per injection),"UCP1 [2]; Molar ratio (Nucleotide/UCP) 1.83995, pH 6.0, 20 °C",0.5154
same,isotherm data point (enthalpy change per injection),"UCP1 [2]; Molar ratio (Nucleotide/UCP) 1.91217, pH 6.0, 20 °C",0.06373
same,isotherm data point (enthalpy change per injection),"UCP1 [2]; Molar ratio (Nucleotide/UCP) 1.98488, pH 6.0, 20 °C",0.2135
Nc1ccn([C@@H]2O[C@H](COP(=O)(O)OP(=O)(O)O)[C@@H](O)[C@H]2O)c(=O)n1 [CDP],competition with GDP binding,UCP1 [3],unable to displace the binding of GDP
"O=c1ccn([C@@H]2O[C@H](COP(=O)(O)OP(=O)(O)OP(=O)(O)O)[C@@H](O)[C@H]2O)c(=O)[nH]1 [UTP, uridine triphosphate]",Kd,UCP1 [2]; [4],2.86 ± 0.49 µM
same,Kd,UCP1 [2]; [5],3.37 µM and 2.82 µM and 2.4 µM
